From patent US20240216357A1 (SICHUAN HUIYU PHARMACEUTICAL CO., LTD., priority 2021, published 2024)
Counter-ions that a name gives are not always drawn. Like-named read-outs stand apart in the source and are kept apart here.

Tests used:
NCI-H1417 cells = assay: In vitro cell proliferation detection (CellTiter-Glo, 7 days); type: cell-based; details: Homo sapiens
LSD1 = LSD1 (Homo sapiens (Human), UniProt O60341); assay: LSD1 enzyme activity detection (HTRF); type: biochemical; details: read-out: Inhibition of enzymatic activity of LSD1 IC50
[1] = 168 h, NCI-H1417 cells, 7 days, CellTiter-Glo, read-out: NCI-H1417 proliferation inhibition IC50

Compound	IC50 (NCI-H1417 cells; [1]) [nM]	IC50 (LSD1; HTRF, H3K4me1 substrate) [nM]	IC50 (NCI-H1417 cells; NCI-H1417, 168 h, read-out: NCI-H1417 proliferation inhibition IC50(nM)) [nM]	IC50 (LSD1) [nM]
Cc1ccc(-c2c(-c3ccc(C#N)c(F)c3)nc(N3CCC(N)CC3)c(C)c2O)cc1O [Example 65, 4-(6-(4-aminopiperidin-1-yl)-4-hydroxy-3-(3-hydroxy-4-methylphenyl)-5-methylpyridin-2-yl)-2-fluorobenzonitrile hydrochloride]	0.95	0.7 ± 0.4	–	–
Cc1ccc(-c2cnc(N3CCC(N)CC3)c(C#N)c2-c2ccc(C#N)c(F)c2)cc1O [Example 67, 2-(4-aminopiperidin-1-yl)-4-(4-cyano-3-fluorophenyl)-5-(3-hydroxy-4-methylphenyl) nicotinonitrile hydrochloride]	0.2	0.2 ± 0.1	–	–
COc1ccc(-c2cnc(N3CCC(N)CC3)c(C#N)c2-c2ccc(C#N)c(F)c2)cc1F [Example 68, 2-(4-aminopiperidin-1-yl)-4-(4-cyano-3-fluorophenyl)-5-(3-fluoro-4-methoxyphenyl) nicotinonitrile hydrochloride]	6.92	3.4 ± 1.3	–	–
COc1ccc(-c2cnc(N3CCC(N)CC3)c(C#N)c2-c2ccc(C#N)c(F)c2)cc1 [Example 69, 2-(4-aminopiperidin-1-yl)-4-(4-cyano-3-fluorophenyl)-5-(4-methoxyphenyl) nicotinonitrile hydrochloride]	8.41	3.9 ± 2.7	–	–
Cc1ccc(-c2cnc(N3CCC(N)CC3)c(C#N)c2-c2ccc(C#N)c(F)c2)cc1F [Example 72, 2-(4-aminopiperidin-1-yl)-4-(4-cyano-3-fluorophenyl)-5-(3-fluoro-4-methylphenyl) nicotinitrile]	12.2	6.6 ± 1	–	–
COc1ccc(-c2cnc(N3CC4CCC3CC4N)c(C#N)c2-c2ccc(C#N)c(F)c2)cc1O (stereo not drawn) [Example 76, 2-(5-amino-2-azabicyclo[2.2.2]octane-2-yl)-4-(4-cyano-3-fluorophenyl)-5-(3-hydroxy-4-methoxyphenyl) nicotinonitrile]	1.37	4.9 ± 2.5	–	–
COc1ccc(-c2cnc(N3CCC(N)C(F)C3)c(C#N)c2-c2ccc(C#N)c(F)c2)cc1O (stereo not drawn) [Example 77, 2-(4-amino-3-fluoropiperidin-1-yl)-4-(4-cyano-3-fluorophenyl)-5-(3-hydroxy-4-methoxyphenyl) nicotinonitrile]	2.19	2.4 ± 0.9	–	–
COc1ccc(-c2cnc(N3CCC[C@@H](N)C3)c(C#N)c2-c2ccc(C#N)c(F)c2)cc1O [Example 78, (R)-2-(3-aminopiperidin-1-yl)-4-(4-cyano-3-f1uorophenyl)-5-(3-hydroxy-4-methoxyphenyl) nicotinonitrile]	2.53	1.6 ± 0.3	–	–
COc1ccc(-c2cnc(N3CC(N)C3)c(C#N)c2-c2ccc(C#N)c(F)c2)cc1O [Example 82, 2-(3-aminoazetidin-1-yl)-4-(4-cyano-3-fluorophenyl)-5-(3-hydroxy-4-methoxyphenyl) nicotinonitrile]	72.4	12.9 ± 0.2	–	–
Cn1ccc(-c2cnc(N3CCC(N)CC3)c(C#N)c2-c2ccc(C#N)c(F)c2)cc1=O [Example 83, 6-(4-aminopiperidin-1-yl)-4-(4-cyano-3-fluorophenyl)-1′-methyl-2′-oxo-1′,2′-dihydro-[3,4′-bipyridine]-5-carbonitrile hydrochloride]	630	35.4	–	–
Cn1cc2cc(-c3cnc(N4CCC(N)CC4)c(C#N)c3-c3ccc(C#N)c(F)c3)ccc2n1 [Example 84, 2-(4-aminopiperidin-1-yl)-4-(4-cyano-3-fluorophenyl)-5-(2-methyl-2H-indazol-5-yl) nicotinonitrile hydrochloride]	4.91	2.18	–	–
N#Cc1ccc(-c2c(-c3ccc(N4CCOCC4)c(O)c3)cnc(N3CCC(N)CC3)c2C#N)cc1F [Example 85, 2-(4-aminopiperidin-1-yl)-4-(4-cyano-3-fluorophenyl)-5-(3-hydroxy-4-morpholinophenyl) nicotinonitrile hydrochloride]	0.76	0.6	–	–
CC(C)(O)COc1ccc(-c2cnc(N3CCC(N)CC3)c(C#N)c2-c2ccc(C#N)c(F)c2)cc1O [Example 86, hydrochloride]	0.63	0.147	–	–
COc1cc(N2CCC(N)CC2)nc(-c2ccc(C#N)c(F)c2)c1-c1ccc(F)c(O)c1 [Example 91, 4-(6-(4-aminopiperidin-1-yl)-3-(4-fluoro-3-hydroxyphenyl)-4-methoxypyridin-2-yl)-2-fluorobenzonitrile]	1.82	1.1 ± 0.3	–	–
COc1ccc(-c2c(OC)cc(N3CCC(N)CC3)nc2-c2ccc(C#N)c(F)c2)cc1C#N [Example 93, 4-(6-(4-aminopiperidin-1-yl)-3-(3-cyano-4-methoxyphenyl)-4-methoxypyridin-2-yl)-2-fluorobenzonitrile]	30.7	153	–	–
COc1cc(N2CCC(N)CC2)nc(-c2ccc(C#N)c(F)c2)c1-c1ccc(C#N)c(F)c1 [Example 94, 4,4′-(6-(4-aminopiperidin-1-yl)-4-methoxypyridin-2,3-diyl)bis(2-fluorobenzonitrile)]	104	24.9	–	–
COc1ccc(-c2c(OC)cc(N3CCNCC3)nc2-c2ccc(C#N)c(F)c2)cc1O [Example 96, 2-fluoro-4-(3-(3-hydroxy-4-methoxyphenyl)-4-methoxy-6-(piperazinyl)pyridin-2-yl)benzonitrile hydrochloride]	11.8	3 ± 0.6	–	–
COc1cc(-c2c(OC)cc(N3CCC(N)CC3)nc2-c2ccc(C#N)c(F)c2)ccc1O [Example 97, 4-(6-(4-aminopiperidin-1-yl)-3-(4-hydroxy-4-methoxyphenyl)-4-methoxypyridin-2-yl)-2-fluorobenzonitrile]	185	88.5	–	–
COc1cc(N2CCC(N)CC2)nc(-c2ccc(C#N)c(F)c2)c1-c1ccc(C(F)(F)F)c(O)c1 [Example 99, 4-(6-(4-aminopiperidin-1-yl)-3-(3-hydroxy-4-(trifluoromethyl)phenyl)-4-methoxypyridin-2-yl)-2-fluorobenzonitrile hydrochloride]	1.72	4.9 ± 1.2	–	–
COc1cc(N2CCN(C)CC2)nc(-c2ccc(C#N)c(F)c2)c1-c1ccc(C)c(O)c1 [Example 100, 2-fluoro-4-(3-(3-hydroxy-4-methylphenyl)-4-methoxy-6-(4-methylpiperazin-1-yl)pyridin-2-yl) benzonitrile]	3.18	8.9 ± 0.3	–	–
COc1ccc(-c2c(-c3ccc(C#N)c(F)c3)nc(N3CCC(N)CC3)c(C)c2OC)cc1O [Example 101, 4-(6-(4-aminopiperidin-1-yl)-3-(3-hydroxy-4-methoxyphenyl)-4-methoxy-5-methylpyridin-2-yl)-2-fluorobenzonitrile]	0.917	1 ± 0.2	–	–
CCOc1cc(N2CCC(N)CC2)nc(-c2ccc(C#N)c(F)c2)c1-c1ccc(OC)c(O)c1 [Example 103, 4-(6-(4-aminopiperidin-1-yl)-4-ethoxy-3-(3-hydroxy-4-methoxyphenyl)pyridin-2-yl)-2-fluorobe nzonitrile]	–	–	6.27	0.6 ± 0.2
COc1ccc(-c2c(OC(F)F)cc(N3CCC(N)CC3)nc2-c2ccc(C#N)c(F)c2)cc1O [Example 106, 4-(6-(4-aminopiperidin-1-yl)-4-(difluoromethoxy)-3-(3-hydroxy-4-methoxyphenyl)pyridin-2-yl)-2-fluorobenzonitrile]	0.594	1.2 ± 0.7	–	–
COc1ccc(-c2c(OCC3CCC3)cc(N3CCC(N)CC3)nc2-c2ccc(C#N)c(F)c2)cc1O [Example 107, 4-(6-(4-aminopiperidin-1-yl)-4-(cyclobutylmethoxy)-3-(3-hydroxy-4-methoxyphenyl)pyridin-2-yl)-2-fluorobenzonitrile hydrochloride]	8.35	2.5 ± 1.7	–	–
COc1ccc(-c2c(OCC3CC3)cc(N3CCC(N)CC3)nc2-c2ccc(C#N)c(F)c2)cc1O [Example 108, 4-(6-(4-aminopiperidin-1-yl)-4-(cyclopropylmethoxy)-3-(3-hydroxy-4-methoxyphenyl)pyridin-2-yl)-2-fluorobenzonitrile hydrochloride]	4.02	1.5 ± 0.7	–	–
COc1ccc(-c2c(OCC3COC3)cc(N3CCC(N)CC3)nc2-c2ccc(C#N)c(F)c2)cc1O [Example 109, 4-(6-(4-aminopiperidin-1-yl)-3-(3-hydroxy-4-methoxyphenyl)-4-(oxetane-3-yl-methoxy)pyridin-2-yl)-2-fluorobenzonitrile hydrochloride]	16	4 ± 1.7	–	–
COc1ccc(-c2c(C(N)=O)nc(N3CCC(N)CC3)nc2-c2ccc(C#N)c(F)c2)cc1F [Example 110, 2-(4-aminopiperidin-1-yl)-6-(4-cyano-3-fluorophenyl)-5-(3-fluoro-4-methoxyphenyl)pyrimidine-4-carboxamide hydrochloride]	42.6	3.2 ± 0.37	–	–
CNC1CCCN(c2nc(OC)c(-c3ccc(OC)c(F)c3)c(-c3ccc(C#N)c(F)c3)n2)C1 (stereo not drawn) [Example 114, 2-fluoro-4-(5-(3-fluoro-4-methoxyphenyl)-6-methoxy-2-(3-(methylamino)piperidin-1-yl)pyrimidin-4-yl)benzonitrile hydrochloride]	> 1000	–	–	67
CNC1CCCN(c2nc(-c3ccc(C#N)c(F)c3)c(-c3ccc(OC)c(F)c3)c3nccn23)C1 (stereo not drawn) [Example 119, 2-fluoro-4-(8-(3-fluoro-4-methoxyphenyl)-5-(3-(methylamino)piperidin-1-yl)imidazolo[1,2-c]pyrimidin-7-yl) benzonitrile]	39.1	9.54 ± 1.2	–	–
COc1ccc(C#Cc2c(-c3ccc(C#N)c(F)c3)nc(N3CCC(N)CC3)n3ccnc23)cc1F [Example 122, 4-(5-(4-aminopiperidin-1-yl)-8-(3-fluoro-4-methoxyphenyl)ethynyl)imidazolo [1,2-c]pyrimidin-7-yl)-2-fluorobenzonitrile hydrochloride]	30.2	8.68 ± 0.76	–	–
